According to patent US8563254B2, “Biomarkers of tumor pharmacodynamic response” (Novartis AG, priority 2009, dated 2013):

How the values were obtained:
A375 cells [1] = experiment: Multiplexed bead-based 27-plex cytokine panel, A375 culture supernatants; type: cell-based, human; settings: 48 hr
Method: A malignant melanoma cell line A375 (American Type Culture Collection, Manassas, Va., USA) and gastric cancer cell line, GTL-16 (Prof Silvia Giordano, Institute for Cancer Research and Treatment, Turin, Italy) were cultured in RPMI 1640 supplemented with 10% FBS and 1% penicillin-streptomycin at 37° C. in 5% CO2 (GIBCO reagents, Invitrogen Corporation, Carlsbad, Calif., USA). Cell numbers were determined by ViCell™ XR Cell Viability Analyzer 2.03 (Beckman Coulter, Inc., Fullerton, Calif., USA). Cells were seeded in poly-D-lysine coated plates (BIOCOAT Cell Environments, Becton Dickinson Biosciences, San Jose, Calif., USA).
Human IL-8 levels in cell culture supernatants treated with NVP-AUY922 were initially assessed as part of a multiplexed bead-based cytokine panel (hu 27-plex panel I, Bio-rad Laboratories, Hercules, Calif., USA) with a BioPlex Suspension Array System (Bio-rad). Human IL-8 and mouse KC levels in serum derived from GTL-16 and A375 tumor-bearing mice treated with NVP-AUY922 were measured by single-plex cytokine bead-based assay (Milliplex, Millipore, Billerica, Mass., USA). The BioPlex system uses a liquid suspension array of beads. The beads align in a single file through a flow cell to the detector, where a red classification laser at a wavelength of 635 nm and a green reporter laser at a wavelength of 532 nm are used to identify each bead's spectral address and associated reporter signal, respectively.
In a screen for candidate secreted markers of Hsp90 inhibition, cell culture supernatants were collected from GTL-16 gastric carcinoma and A375 melanoma cells that were washed and treated for 48 hr with 1 μM NVP-AUY922 in fresh culture medium. These samples were analyzed by a multiplexed cytokine bead-based assay that included a panel of 27 human cytokines, the results of which are shown in FIG. 1. […] In addition to this empirical investigation using the bead-based immunoassay panel, in silica data mining was undertaken to identify secreted proteins that were regulated by previously reported Hsp90 client proteins; this investigation pointed to a number of candidates, including IL-8, consistent with the empirical results.

A375 cells [2] = experiment: Western blot of total protein lysates, A375; type: cell-based, human; settings: A375, 0.3 μM, 16 hr and 24 hr
Method: Total protein lysates were prepared from the GTL-16 and A375 cells with RIPA lysis buffer (Upstate, Millipore Corporation, Charlottesville, Va., USA). Cells were washed with PBS and 500 ul of ice-cold RIPA buffer, containing protease inhibitor cocktail tablet (Roche Diagnostic GmbH, Mannheim, Germany) and phosphatase inhibitors (Sigma-Aldrich, Inc., St. Louis, Mo., USA), was added to each plate on ice. After 15 min the cells were scrapped from the plate surface and spun at 16000 RPM for 10 min at 4° C. The supernatant was collected and frozen at −80° C. Nuclear protein fractions were prepared by the NE-PER nuclear and cytoplasmic extraction kit (Pierce Biotechnology, Rockford, Ill., USA). Proteins were quantified by bicinchoninic acid assay (Pierce Biotechnology, Rockford, Ill., USA) for Western blotting. Primary antibodies specific for NFκB p65, cREL, p-ERK1/2, p-c-jun, ERK1 and Jun were purchased from Santa Cruz Biotechnology (Santa Cruz Biotechnology, Inc., Santa Cruz, Calif., USA) with the exception of Hsp70 and TBP (nuclear loading control), which were obtained from StressGen (StressGen, Assay Designs, Inc., Aim Arbor, Mich., USA) and Abcam (Abcam Inc., Cambridge, Mass., USA), respectively. 4-12% Bis-Tris SDS-PAGE, denaturing, non-reducing gels were loaded with 30 μg of total protein, a SeeBlue2Plus pre-stained protein standard and MES SDS running buffer were utilized for the electrophoretic separation in a XCell SureLock™ Mini-Cell (Invitrogen Corporation, Inc., Carlsbad, Calif., USA). An iBlot™ gel transfer PVDF stack with iBlot™ gel transfer system (Invitrogen) was used. An Odyssey Infrared Imaging System was used to detect the immunocomplex (Li-COR Biotechnologies, Inc., Lincoln, Nebr., USA). Li-COR blocking buffer was used to limit cross-reactivity. Membranes were incubated at 4° C. overnight in the primary antibody diluted in blocking buffer, followed by 1 hr room temperature incubation with a secondary IgG antibody (Li-COR IR dye, Li-COR).

CCNC(=O)c1noc(-c2cc(C(C)C)c(O)cc2O)c1-c1ccc(CN2CCOCC2)cc1 [NVP-AUY922, 5-(2,4-Dihydroxy-5-isopropyl-phenyl)-4-(4-morhpolin-4-ylmethyl-phenyl)-isoxazole-3-carboxylic acid ethylamide]
IL-2 levels (A375 cells [1]; A375, 1 μM): increased
accumulation of IL-1ra, IL-8, MCP-1 (MCAF) and VEGF (A375 cells [1]; A375, 1 μM): decreased accumulation
accumulation of other detectable cytokines (A375 cells [1]; A375, 1 μM): remained unchanged
IL-8 accumulation decreased (A375 cells [1]; A375 culture supernatant, 1 μM, multiplexed assay): > 70%
Hsp70 induction (A375 cells [2]): induction was observed
levels of phospho-ERK1/2 and phospho-c-Jun (A375 cells [2]): significantly diminished
total ERK and c-Jun levels (A375 cells [2]): unaffected
total cellular levels of NFκB p65 and c-REL (A375 cells [2]): essentially unchanged
